In patent US4939142A, “Substituted styrene derivatives” (priority 1989, dated 1990):

How the values were obtained:
[1] = test system: experimental coronary insufficiency induced by vasopressine; assay: Antianginal effect on rats, vasopressine-induced coronary insufficiency, T-wave (Nieschultz); type: in vivo, male rats; settings: Table IX, dose 2 mg/kg, vasopressine 1 IU/kg i.v.
Protocol: The test is carried out on male rats weighing 180-220 g. The animals are narcotized with the aid of chloralose urethane (70-700 mg/kg i.p.). ECG is registered by means of needle electrodes in standard II output. Antianginal effect is tested according to the method of Nieschultz. Experimental coronary insufficiency is induced by administering vasopressine (1 IU/kg i.v.) on 10-12 animals for each dose. The magnitude of the T-wave before and after the administration of vasopressine is measured in the treated and control groups.

motility = assay: animal or person; type: in vivo; settings: for ED50: Mus musculus, po; for Therapeutical index: Table II, motility inhibition, LD50/ED50
Protocol: The test is accomplished according to the method of Borsy et al. in a 10-channel Dews system equipment, whereby 3 mice are used per channel. The test compound or the carrier, respectively, is administered orally, and one hour after the said treatment the animals are placed into the apparatus and the number of the interruptions of infrared radiation is registered for 30 minutes.
The results are summarized in Table II and documented by means of suitable statistics for each experiment.
[J. Borsy, E. Csanyi, I. Lazar: Arch. Int. Pharmacodyn. 124, 1 (1960)].

in vivo = settings: mouse, in vivo, po
Protocol: (§1) Male and female white mice (CFLP strain, 18-22 g) are used, 10 animals per dose. The test compounds are administered orally in a volume of 20 ml/kg. After administration the mice are observed for a period of 7 days. The animals are kept in plastic boxes, on wood litter, at room temperature. The animals receive standard mouse fodder and tap water ad libitum.

mice = assay: in vivo; settings: 10080 min
Protocol: as §1

ulcus secretion = assay: animal or person; type: in vivo; settings: for ED50: Rattus norvegicus, po, 5 h; for Therapeutical index: Table X, ulcus secretion, LD50/ED50
Protocol: The test is carried out according to the method of Nakamura on rats (Wistar strain) weighing 150-230 g and fasted for 48 hours. Each animal group consists of 4 male and 4 female rats. On the day of the experiment the pylorus of the animals is bound and the corresponding dose of the test compound is administered orally immidiately after operation. The animals are killed with ether 5 hours after the operation, their stomach is removed, cut along the large curve and placed on plastic plates.

[2] = test system: nicotine spasm and lethality; assay: Inhibition of nicotine spasm and lethality on mice (Stone); type: in vivo; settings: Table VIII; for ED50: Mus musculus, oral, 1 h before nicotine 1.4 mg/kg i.v.; for Therapeutical index: nicotine spasm and lethality, LD50/ED50
From the text: [Stone, C. C., Mecklenburg, K. L., Torchiana, M. L.: Arch. Int.

pentetrazole spasm = assay: Inhibition of pentetrazol spasm on mice; settings: for ED50: Mus musculus, po; for Therapeutical index: Table V, pentetrazole spasm, LD50/ED50
Protocol: The modified method of Benziger and Hane is used on white mice. Groups consisting of 6 animals are used for each dose. […] The test compounds are administered orally one hour before the treatment with pentetrazole; in the control group the animals obtain the carrier orally at the same points of time.
The therapeutical index data disclosed in the above Tables are calculated by means of the following equation: [formula]

maximal electroshock = assay: Inhibition of maximal electroshock on mice; settings: for ED50: Mus musculus, po; for Therapeutical index: Table VI, maximal electroshock, LD50/ED50
Protocol: The test is carried out on white mice weighing 20-25 g. The animals receive an electric shock through corneal electrodes (50 Hz; 45 mA, 0.4 sec.). A total inhibition of the tonus extensor spasms of the posterior extremities is regarded as the criterium of anticonvulsive effect. The test compound and the carrier, respectively, are administered orally an hour before the electric shock.

acetic acid writhing = assay: Acetic acid "writhing test" on mice (Newbould); type: in vivo, white mice; settings: Table VII; for ED50: Mus musculus, oral, 1 h before acetic acid i.p., read-out: ED50; for Therapeutical index: acetic acid writhing, LD50/ED50
Protocol: In the period between the 5th and 10th minutes following the administration of acetic acid the number of the characteristic "writhing" responses is counted for each animal and the "total writhing number" (within 5 minutes) is expressed as the percentage of the value obtained for the control animals. The mice are treated with the test compound and the carrier, respectively, orally 1 hour before the administration of acetic acid. 12 animals are used per dose.
[Newbould, B. D.: Brit.

tetrabenazine ptosis = assay: Tetrabenazin ptosis antagonism (Hoffmeister et al.); type: in vivo; settings: Table III; for ED50: Mus musculus, oral, 30 min before tetrabenazin 50 mg/kg i.p.; for Therapeutical index: tetrabenazin ptosis, LD50/ED50
Protocol: The test is carried out by the method of Hoffmeister et al. adapted to mice. Groups consisting of 10-20 animals are treated orally with each dose of the test compound. The control group is treated orally with the carrier. Thirty minutes later a 50 mg/kg i.p. tetrabenazine dose is administered, whereupon after 30, 60, 90 and 120 minutes the animals with closed eye-lids are counted in each group.
On the basis of all measurements an average ptosis is calculated for each group and expressed as the percentile deviation (inhibition) from the control group. On the basis of the data thus obtained ED50 values are calculated.
[Hoffmeister, F., Wuttke, W., and Kroneberg, G.: Arzneim. Forsch. (Drug.

yohimbin toxicity = assay: animal or person
Protocol: The test is carried out according to the method of Quinton. Groups consisting of 10 mice are used for each dose. The animal groups are treated with the suitable doses of the test compounds while the control group is treated with a carrier. An hour after the treatment a sublethal dose of yohimbin is administered intraperitoneally in a volume of 20 ml/kg. The perished animals are counted after 1 and 24 hours.

hexobarbital narcosis = assay: Hexobarbital narcosis potentiating effect; settings: for ED50: Mus musculus, po; for Therapeutical index LD50 /ED50: Table I, hexobarbital narcosis
Protocol: The test is carried out on white mice. Groups consisting of six mice are used for each dose and test compound. The test compound is administered orally and an hour after this treatment narcosis is induced by means of a 40 mg/kg i.v. dose of hexobarbital. The control group receives carrier instead of the test compound.
Those mice are considered to be having a positive reaction which show a narcosis time at least 2.5 times longer than that of the control group. The ED50 values thus transformed are calculated.

CC1(C)CC(/C=C/c2cccc(Cl)c2)=CC(=N/OCCN2CCOCC2)/C1 [Example 28, 5,5-Dimethyl-3-(E)-[(3'-chloro-phenyl)-vinyl]-1-(E)-(N-morpholino-ethoxyimino)-2-cyclohexene]
Inhibition % [1]: -31%

CC1(C)CC(/C=C/c2ccccc2Cl)=CC(=N/OCCN2CCCCC2)/C1 [Example 26, 5,5-Dimethyl-3-(E)-[(2'-chloro-phenyl)-vinyl]-1-(E)-(N-piperdinyl-ethoxyimino)-2-cyclohexene]
ED50 (motility): ~200 mg/kg | Therapeutical index (motility): > 5.0 | LD50 at 168 h (in vivo): > 1000 mg/kg | LD50 (mice; Table II, oral, mice): > 1000 mg/kg | ED50 (ulcus secretion): ~50 mg/kg | Therapeutical index (ulcus secretion): above 20

CN(C)CCO/N=C1C=C(/C=C/c2ccccc2)CC(C)(C)C/1 [Example 3, 5,5-Dimethyl-3-(E)-phenyl-vinyl-1-(E)-(2'-dimethylamino-ethoxyimino)-2-cyclohexene]
ED50 [2]: 33 mg/kg | Therapeutical index [2]: 30.3 | ED50 (motility): 58 mg/kg | Therapeutical index (motility): 17.0 | ED50 (pentetrazole spasm): 68 mg/kg | Therapeutical index (pentetrazole spasm): 14.7 | LD50 at 168 h (in vivo): 1000 mg/kg | ED50 (maximal electroshock): 88 mg/kg | Therapeutical index (maximal electroshock): 11.4

CC1(C)CC(/C=C/c2cccc(Cl)c2)=CC(=N/OCCCN2CCOCC2)/C1 [Example 34, 5,5-Dimethyl-3-(E)-[(3'-chloro-phenyl)-vinyl]-1-(E)-(N-morpholino-propoxyimino)-2-cyclohexene]
ED50 (acetic acid writhing): ~200 mg/kg | Therapeutical index (acetic acid writhing): > 10.0 | ED50 (pentetrazole spasm): 180 mg/kg | Therapeutical index (pentetrazole spasm): > 11.0 | LD50 at 168 h (in vivo): > 2000 mg/kg | LD50 (mice; Table VII, oral, mice): > 2000 mg/kg | LD50 (mice; Table X): above 2000 mg/kg | ED50 (ulcus secretion): ~100 mg/kg | Therapeutical index (ulcus secretion): above 20.0

CN(C)CCC=C1c2ccccc2CCc2ccccc21 [Amitriptylin, reference compound]
ED50 (tetrabenazine ptosis): 12 mg/kg | ED50 (yohimbin toxicity; Mus musculus): 12.5 mg/kg | Therapeutical index (yohimbin toxicity; Table IV, yohimbin toxicity, LD50/ED50): 18

CC1(C)CC(/C=C/c2ccc(Cl)cc2)=CC(=N/OCCCN2CCN(Cc3ccccc3)CC2)/C1 [Example 20, 5,5-Dimethyl-3-(E)-[(4'-chloro-phenyl)-vinyl]-1-(E)-(4"-phenyl-methyl-1"-piperazinyl-propoxyimino)-2-cyclohexene]
LD50 at 168 h (in vivo): 2000 mg/kg | Inhibition % [1]: -54.4% | ED50 (tetrabenazine ptosis): 8.5 mg/kg | Therapeutical index (tetrabenazine ptosis): 235.3

COc1ccccc1/C=C/C1=CC(=N/OCCN2CCCCC2)/CC(C)(C)C1 [Example 33, 5,5-Dimethyl-3-(E)-[(2'-methoxy-phenyl)-vinyl]-1-(E)-(N-piperidinyl-ethoxyimino)-cyclohexene]
ED50 (pentetrazole spasm): 63 mg/kg | Therapeutical index (pentetrazole spasm): > 15.9 | LD50 at 168 h (in vivo): > 1000 mg/kg | Inhibition % [1]: -47.1%

CC(CO/N=C1C=C(/C=C/c2ccccc2)CC(C)(C)C/1)CN(C)C (racemic) [Example 13, D,L-5,5-Dimethyl-3-(E)-phenyl-vinyl-1-(E)-(3'-dimethylamino-2'-methyl-propoxyimino)-2-cyclohexene]
ED50 (motility): 100 mg/kg | Therapeutical index (motility): 18.0 | ED50 (hexobarbital narcosis): 9 mg/kg | Therapeutical index LD50 /ED50 (hexobarbital narcosis): 200.0 | LD50 at 168 h (in vivo): 1800 mg/kg | ED50 (maximal electroshock): 64 mg/kg | Therapeutical index (maximal electroshock): 28.1

COc1cccc(/C=C/C2=CC(=N/OCCN3CCOCC3)/CC(C)(C)C2)c1 [Example 29, 5,5-Dimethyl-3-(E)-[(3'-methoxy-phenyl)-vinyl]-1-(E)-(N-morpholino-ethoxyimino)-2-cyclohexene]
ED50 (acetic acid writhing): ~160 mg/kg | Therapeutical index (acetic acid writhing): > 12.5 | ED50 (motility): ~200 mg/kg | Therapeutical index (motility): > 10.0 | ED50 (hexobarbital narcosis): 21.5 mg/kg | Therapeutical index LD50 /ED50 (hexobarbital narcosis): > 93.0 | LD50 at 168 h (in vivo): > 2000 mg/kg | LD50 (mice; Table I, oral, mice): > 2000 mg/kg | LD50 (mice; Table II, oral, mice): > 2000 mg/kg | LD50 (mice; Table X): above 2000 mg/kg | ED50 (ulcus secretion): ~200 mg/kg | Therapeutical index (ulcus secretion): above 10.0

CC(CO/N=C1C=C(/C=C/c2ccc(Cl)cc2)CC(C)(C)C/1)CN(C)C (racemic) [Example 18, D,L-5,5-Dimethyl-3-(E)-[(4'-chloro-phenyl)-vinyl]-1-(E)-(3"-dimethylamino-2"-methyl-propoxyimino)-2-cyclohexene]
ED50 [2]: 88 mg/kg | Therapeutical index [2]: 22.7 | ED50 (pentetrazole spasm): 190 mg/kg | Therapeutical index (pentetrazole spasm): 10.5 | LD50 at 168 h (in vivo): 2000 mg/kg | ED50 (tetrabenazine ptosis): 40 mg/kg | Therapeutical index (tetrabenazine ptosis): 50.0

COc1cccc(/C=C/C2=CC(=N/OCCCN3CCOCC3)/CC(C)(C)C2)c1 [Example 30, 5,5-Dimethyl-3-(E)-[(3'-methoxy-phenyl)-vinyl]-1-(E)-(N-morpholino-propoxyimino)-2-cyclohexene]
ED50 (motility): ~200 mg/kg | Therapeutical index (motility): > 10.0 | ED50 (hexobarbital narcosis): 21.5 mg/kg | Therapeutical index LD50 /ED50 (hexobarbital narcosis): > 93.0 | LD50 at 168 h (in vivo): > 2000 mg/kg | LD50 (mice; Table I, oral, mice): > 2000 mg/kg | LD50 (mice; Table II, oral, mice): > 2000 mg/kg | Inhibition % [1]: -45% | ED50 (ulcus secretion): ~150 mg/kg | Therapeutical index (ulcus secretion): above 13.3

CN(C)CCCO/N=C1C=C(/C=C/c2ccccc2)CC(C)(C)C/1 [Example 1, 5,5-Dimethyl-3-(E)-phenyl-vinyl-1-(E)-(3'-dimethylamino-propoxyimino)-2-cyclohexene]
ED50 (acetic acid writhing): 160 mg/kg | Therapeutical index (acetic acid writhing): 8.1 | ED50 [2]: 12 mg/kg | Therapeutical index [2]: 108.0 | ED50 (motility): 60 mg/kg | Therapeutical index (motility): 22.0 | ED50 (pentetrazole spasm): 56 mg/kg | Therapeutical index (pentetrazole spasm): 23.2 | LD50 at 168 h (in vivo): 1300 mg/kg | ED50 (maximal electroshock): 110 mg/kg | Therapeutical index (maximal electroshock): 11.8
